Experiments:
[1] = tested on: Japanese women with HR+ ABC; conditions: first‐line therapy; cited from earlier work
[2] = tested on: patients with advanced solid tumors refractory to standard therapy; conditions: single‐agent, Japanese patients, phase I part 1; cited from earlier work
[3] = Plasma palbociclib steady-state pharmacokinetics; format: in vivo, human
[4] = tested on: Japanese postmenopausal patients with ER+/HER2− advanced breast cancer; assay: Exposure to study drugs and dose modifications; format: in vivo, human; conditions: for Median average duration of dose interruption (range): during total cycles
[5] = tested on: non‐Japanese postmenopausal women with ER+ and HER2− ABC; conditions: PALOMA‐1; letrozole 2.5 mg QD alone or with palbociclib 125 mg QD 3/1 schedule; cited from earlier work
[6] = tested on: postmenopausal women with ER+/HER2− ABC; conditions: PALOMA‐2; letrozole with or without palbociclib (3/1 schedule); cited from earlier work

SMILES | Median time to progression [1] | Cycle delay ([4]; N = 42) | Dose interruption ([4]; N = 42) | Median average duration of dose interruption (range) [4] | Median average duration of cycle delay (range) ([4]; in vivo) | Median time to first dose interruption (range) ([4]; in vivo) | further results
CC(C)(C#N)c1cc(Cn2cncn2)cc(C(C)(C)C#N)c1 [anastrozole] | approximately 12 months |  |  |  |  |  | 
CC(=O)c1c(C)c2cnc(Nc3ccc(N4CCNCC4)cn3)nc2n(C2CCCC2)c1=O [palbociclib] |  | 39 (92.9) n (%) | 35 (83.3) n (%) | 5.5 (1.0‐8.5) d | 7 (5‐47) d | 15 (5‐124) d | Maximum tolerated dose [2]: 125 mg; Tmax ([3]; human, plasma, oral): 4.9 h; Ctrough, predose concentration on cycle 2/day 15 ([3]; with letrozole, N = 30, geometric mean (geometric %CV)): 86.8 (40) ng/mL; Ctrough, predose concentration on cycle 1/day 15 ([3]; with letrozole, N = 32, geometric mean (geometric %CV)): 89.4 (44) ng/mL; Ctrough, predose concentration on day 15, cycles 1 and 2 ([3]; with letrozole, N = 38, geometric mean of within‐patient mean Ctrough (geometric %CV)): 90.1 (42) ng/mL; ≥1 dose reduction ([4]; N = 42): 25 (59.5) n (%); Median time to dose reduction (range), first dose reduction ([4]; in vivo): 64 (29‐232) d; Median time to dose reduction (range), second dose reduction ([4]; in vivo): 114 (64‐415) d; Patients with a dose reduction to 75 mg ([4]; maximum dose reduction, N = 42): 8 (19.0) n (%); Patients with a dose reduction to 100 mg ([4]; maximum dose reduction, N = 42): 17 (40.5) n (%)
N#Cc1ccc(C(c2ccc(C#N)cc2)n2cncn2)cc1 [letrozole] |  | 8 (19.0) n (%) | 30 (71.4) n (%) | 1.0 (1.0‐24.5) d | 7 (5‐47) d | 107 (5‐404) d | Median PFS [5]: 10.2 months; Median PFS [6]: 14.5 months
C=C1C[C@@H]2[C@H](CC[C@]3(C)C(=O)CC[C@@H]23)[C@@]2(C)C=CC(=O)C=C12 [exemestane] | approximately 12 months |  |  |  |  |  | 
